Earlier results in patent US20250143325A1, “PLANT-BASED INSECT REPELLENT AND USES THEREOF” (PIC Corporation, priority 2023, published 2025).

Experiments:
[1] = test system: storage food mite, Tyrophagus putrescentiae; details: impregnated fabric disc bioassay against Tyrophagus putrescentiae
[2] = test system: Periplaneta americana (the American Cockroach) and Blaberus discoidalis (discoids)

Row | Structure (SMILES) | 50% lethal dose value [1] [g/mL] | concentration abolishing spontaneous foregut contractions (together with response to electrical stimulation) ([2]; foregut) [mM] | threshold for increased spontaneous firing (abdominal nerve cord) ([2]; lower doses, impulses recorded extracellularly) [µM]
1 | CC(C)=CCC/C(C)=C/CO [geraniol] | 1.95 | 2 | 250
2 | O=C(OCc1ccccc1)c1ccccc1 [benzyl benzoate] | 1.27 |  | 
